Like-named read-outs stand apart in the source and are kept apart here.

Experiment [1] concerns Zymoseptoria tritici. Put plainly: Fungicidal activity: leaf blotch of wheat (SEPTTR), wheat seedlings, booth sprayer to run-off or track spray. In kind it is in vivo. The following applies: for pest or weed control at 100 ppm: High-Volume Cereal Activity at 100 ppm; for pest or weed control at 121.5 g/ha: Low-Volume Cereal Activity at 121.5 g/H.
Experiment [2] has as its system Puccinia triticina. Description: Fungicidal activity: wheat brown rust (PUCCRT), wheat seedlings, booth sprayer to run-off or track spray. The format is in vivo. The following applies: for pest or weed control at 100 ppm: High-Volume Cereal Activity at 100 ppm; for pest or weed control at 121.5 g/ha: Low-Volume Cereal Activity at 121.5 g/H.
The test system of experiment [3] is Phakopsora pachyrhizi. Description: Fungicidal activity: Asian soybean rust (PHAKPA), soybean seedlings. The following applies: 25 ppm, soybean plants (variety Williams 82); for Disease Control PHAKPA 1DP: 1 Day Protectant; for Disease Control PHAKPA 3DC: 3 Day Curative.
Setting [4] is: 24 h, 1 Day Protectant, read-out: SEPTTR 1DP.
Where [5] appears, read: 72 h, 3 Day Curative, read-out: SEPTTR 3DC.
Where [6] appears, read: 24 h, 1 Day Protectant, read-out: PUCCRT 1DP.
[7] abbreviates: 72 h, 3 Day Curative, read-out: PUCCRT 3DC.
[8] abbreviates: 3DC (Day Curative), read-out: PUCCRT 3DC.

As to `CCCO[C@H](CC)[C@@H](Cc1ccccc1)[C@H](C)OC(=O)[C@H](C)NC(=O)c1nccc(OC)c1OCOC(C)=O` [compound 169], the pest or weed control at 100 ppm in experiment [1] (setting [4]) lay within 80 to 100%; in experiment [1] (3DC (Day Curative), read-out: SEPTTR 3DC), 80 to 100%; in experiment [2] (setting [6]), 80 to 100%; in experiment [2] (setting [8]) it was 80 to 100%. Also, the pest or weed control at 121.5 g/ha in experiment [1] (setting [4]), in experiment [1] (setting [5]), in experiment [2] (setting [6]) and in experiment [2] (setting [7]) was 80 to 100% throughout. In addition, the “Disease Control PHAKPA 1DP” value in experiment [3] is listed as “A (80-100)”. Moreover, the “Disease Control PHAKPA 3DC” value in experiment [3] was “B (More than 0-Less than 80)”.
`COc1ccnc(C(=O)N[C@@H](C)C(=O)O[C@@H](C)[C@@H](COCc2ccccc2)Cc2ccccc2)c1OCOC(C)=O` [compound 240]: the pest or weed control at 121.5 g/ha fell in the range of 0 to 80% in experiment [1] (setting [4]), 80 to 100% in experiment [1] (setting [5]), 80 to 100% in experiment [2] (setting [6]) and 80 to 100% in experiment [2] (setting [7]). The “Disease Control PHAKPA 1DP” value in experiment [3] was “A (80-100)”. For the same molecule, the “Disease Control PHAKPA 3DC” value in experiment [3] was “B (More than 0-Less than 80)”.
For the molecule `COc1ccnc(C(=O)N[C@@H](C)C(=O)O[C@@H](C)[C@H](Cc2ccccc2)C(C)(C)OCc2ccccc2)c1OCOC(C)=O` [compound 242], the pest or weed control at 121.5 g/ha in experiment [1] (setting [4]), in experiment [1] (setting [5]), in experiment [2] (setting [6]) and in experiment [2] (setting [7]) was 80 to 100% each time. Further, the “Disease Control PHAKPA 1DP” value in experiment [3] was “B (More than 0-Less than 80)”.
With `COc1ccnc(C(=O)N[C@@H](C)C(=O)OC(C)C(Cc2cccc(F)c2)Cc2cccc(F)c2)c1OCOC(C)=O` (stereo partly shown) [compound 267], the pest or weed control at 121.5 g/ha in experiment [1] (setting [4]), in experiment [1] (setting [5]) and in experiment [2] (setting [6]) was 0 to 80% in each case.
On to `COc1ccnc(C(=O)N[C@@H](C)C(=O)OC(C)C(Cc2ccc(F)cc2)Cc2ccc(F)cc2)c1OCOC(C)=O` (stereo partly shown) [compound 268], for which the pest or weed control at 121.5 g/ha was in the range of 0 to 80% in experiment [1] (setting [4]), 0 to 80% in experiment [1] (setting [5]), 80 to 100% in experiment [2] (setting [6]) and 80 to 100% in experiment [2] (setting [7]).
With `CC[C@H](NC(=O)c1nccc(OC)c1OCOC(C)=O)C(=O)OC(C)C(Cc1ccccc1)Cc1ccccc1` (stereo partly shown) [compound 269], the pest or weed control at 121.5 g/ha lay within 80 to 100% in experiment [1] (setting [4]), 80 to 100% in experiment [1] (setting [5]), 80 to 100% in experiment [2] (setting [6]) and 0 to 80% in experiment [2] (setting [7]).
`COc1cccc(CC(Cc2cccc(OC)c2)[C@H](C)OC(=O)[C@H](C)NC(=O)c2nccc(OC)c2OC(C)=O)c1` [compound 270]: the pest or weed control at 121.5 g/ha in experiment [1] (setting [4]) is 0 to 80%; in experiment [2] (setting [6]) it was 80 to 100%; in experiment [2] (setting [7]), 0 to 80%.
Take `CC[C@H](NC(=O)c1nccc(OC)c1OC(C)=O)C(=O)O[C@@H](C)C(Cc1cccc(OC)c1)Cc1cccc(OC)c1` [compound 271]: the pest or weed control at 121.5 g/ha in experiment [1] (setting [4]) and in experiment [2] (setting [6]) was 0 to 80% each time.
Turning to `COc1ccc(CC(Cc2ccc(OC)cc2)[C@H](C)OC(=O)[C@H](C)NC(=O)c2nccc(OC)c2OC(C)=O)cc1` [compound 272], the pest or weed control at 121.5 g/ha in experiment [1] (setting [4]) was 80 to 100%; in experiment [2] (setting [6]), 0 to 80%; in experiment [2] (setting [7]), 0 to 80%.
Turning to `CC[C@H](NC(=O)c1nccc(OC)c1OC(C)=O)C(=O)O[C@@H](C)C(Cc1ccc(OC)cc1)Cc1cccc(OC)c1` (stereo partly shown) [compound 273], the pest or weed control at 121.5 g/ha in experiment [1] (setting [4]) was 80 to 100%; in experiment [1] (setting [5]), 0 to 80%; in experiment [2] (setting [6]) it was 0 to 80%; in experiment [2] (setting [7]), 0 to 80%.
As for `COc1cccc(CC(Cc2cccc(OC)c2)[C@H](C)OC(=O)[C@H](C)NC(=O)c2nccc(OC)c2OCOC(C)=O)c1` [compound 274], the pest or weed control at 121.5 g/ha in experiment [1] (setting [4]) was in the range of 0 to 80%; in experiment [2] (setting [6]) it was 80 to 100%; in experiment [2] (setting [7]), 0 to 80%.
On to `CC[C@H](NC(=O)c1nccc(OC)c1OCOC(C)=O)C(=O)O[C@@H](C)C(Cc1cccc(OC)c1)Cc1cccc(OC)c1` [compound 275], for which the pest or weed control at 121.5 g/ha was 0 to 80% in experiment [1] (setting [4]), 80 to 100% in experiment [2] (setting [6]) and 0 to 80% in experiment [2] (setting [7]).
As to `COc1ccc(CC(Cc2ccc(OC)cc2)[C@H](C)OC(=O)[C@H](C)NC(=O)c2nccc(OC)c2OCOC(C)=O)cc1` [compound 276], the pest or weed control at 121.5 g/ha fell in the range of 80 to 100% in experiment [1] (setting [4]), 0 to 80% in experiment [1] (setting [5]) and 80 to 100% in experiment [2] (setting [6]).
As for `CC[C@H](NC(=O)c1nccc(OC)c1OCOC(C)=O)C(=O)O[C@@H](C)C(Cc1ccc(OC)cc1)Cc1ccc(OC)cc1` [compound 277], the pest or weed control at 121.5 g/ha lay within 80 to 100% in experiment [1] (setting [4]), 80 to 100% in experiment [2] (setting [6]) and 0 to 80% in experiment [2] (setting [7]).
`COc1ccc(C[C@@H]([C@H](C)OC(=O)[C@H](C)NC(=O)c2nccc(OC)c2OCOC(C)=O)C(C)(C)OCC2CC2)cc1` [compound 278]: the pest or weed control at 121.5 g/ha in experiment [1] (setting [4]) fell in the range of 0 to 80%; in experiment [1] (setting [5]), 0 to 80%; in experiment [2] (setting [6]) it was 80 to 100%; in experiment [2] (setting [7]), 0 to 80%.
Regarding `COc1ccc(C[C@@H]([C@H](C)OC(=O)[C@H](C)NC(=O)c2nccc(OC)c2OCOC(C)=O)C(C)(C)Oc2ccc(F)cc2F)cc1` [compound 279], the pest or weed control at 121.5 g/ha in experiment [1] (setting [4]) was in the range of 0 to 80%; in experiment [1] (setting [5]) it was 80 to 100%; in experiment [2] (setting [6]), 80 to 100%; in experiment [2] (setting [7]), 0 to 80%.
Turning to `COc1ccc(C[C@H](COCC2CC2)[C@H](C)OC(=O)[C@H](C)NC(=O)c2nccc(OC)c2OCOC(C)=O)cc1` [compound 280], the pest or weed control at 121.5 g/ha was 0 to 80% in experiment [1] (setting [4]), 80 to 100% in experiment [1] (setting [5]), 80 to 100% in experiment [2] (setting [6]) and 80 to 100% in experiment [2] (setting [7]).
Consider `COc1ccc(C[C@H](COCC2CC2)[C@H](C)OC(=O)[C@H](C)NC(=O)c2nccc(OC)c2OCOC(C)=O)cc1Cc1ccccc1` [compound 281], for which the pest or weed control at 121.5 g/ha in experiment [1] (setting [4]) is 0 to 80%; in experiment [1] (setting [5]) it was 80 to 100%; in experiment [2] (setting [6]), 80 to 100%; in experiment [2] (setting [7]), 0 to 80%.
Turning to `COc1ccc(C[C@H](COc2ccc(F)cc2F)[C@H](C)OC(=O)[C@H](C)NC(=O)c2nccc(OC)c2OCOC(C)=O)cc1` [compound 282], the pest or weed control at 121.5 g/ha in experiment [1] (setting [4]) lay within 0 to 80%; in experiment [1] (setting [5]), 0 to 80%; in experiment [2] (setting [6]), 80 to 100%.
For the molecule `CC[C@@H](c1ccccc1)[C@H](C)OC(=O)[C@H](C)NC(=O)c1nccc(OC)c1OC(C)=O` [compound 283], the pest or weed control at 121.5 g/ha in experiment [1] (setting [4]) lay within 0 to 80%; in experiment [1] (setting [5]) it was 80 to 100%; in experiment [2] (setting [6]) it was 80 to 100%; in experiment [2] (setting [7]) it was 80 to 100%.
On to `CC[C@H](Cc1ccc(C(F)(F)F)cc1)[C@@H](Cc1ccc(F)cc1)[C@H](C)OC(=O)[C@H](C)NC(=O)c1nccc(OC)c1O` [compound 284], for which the pest or weed control at 100 ppm lay within 0 to 80% in experiment [1] (setting [4]), 80 to 100% in experiment [2] (setting [6]) and 80 to 100% in experiment [2] (setting [8]).

Source of the values: patent US10173971B2, “Picolinamides with fungicidal activity” (DOW AGROSCIENCES LLC, priority 2014, dated 2019).
